Structures can show the parent of a compound that is named as a salt.
System: LTD4
Assay: LTD4 antagonistic action in vivo (airway resistance increase, Konzett-Roessler)
Set-up: species or system guinea pig
Details: Cavia porcellus, read-out: Airway resistance increase inhibition

SMILES	inhibition in vivo at 3 mg/kg [%]
O=C([O-])CCCNc1cccc(/C=C/c2nc3ccccc3s2)c1.[Na+] [sodium salt]	55

Same assay, conditions: Cavia porcellus; intraduodenal, 3 mg/kg; LTD4 0.1-1.0 μg/kg i.v.; read-out: Airway resistance increase inhibition

SMILES	inhibition in vivo at 3 mg/kg [%]
O=C(CC1(C(=O)O)CCCCC1)Nc1cccc(/C=C/c2nc3ccccc3s2)c1 [compound 223]	87
CCCCC(CC(=O)Nc1cccc(/C=C/c2nc3ccccc3s2)c1)C(=O)O (stereo not shown) [compound 227]	71

Same assay, conditions: Cavia porcellus; intraduodenal, 10 mg/kg; LTD4 0.1-1.0 μg/kg i.v.

SMILES	inhibition in vivo at 10 mg/kg [%]
CCCc1csc(/C=C/c2cccc(NC(=O)c3ccccc3C(=O)O)c2)n1 [compound 272]	37
CC(C)(C)c1csc(/C=C/c2cccc(NC(=O)CCC(=O)O)c2)n1 [compound 297]	62

Same assay, conditions: Cavia porcellus; intraduodenal, 30 mg/kg; LTD4 0.1-1.0 μg/kg i.v.

SMILES	inhibition in vivo at 30 mg/kg [%]
O=C(O)/C=C\C(=O)Nc1cccc(/C=C/c2nc3ccccc3s2)c1 [compound 213, 2-[trans-3-(cis-3-carboxypropenamide)styryl]benzothiazole sodium salt]	51
O=C(O)/C=C\C(=O)Nc1cccc(CCc2nc3ccccc3s2)c1 [compound 353]	79

System: not listed separately
Assay: Acute toxicity test, oral
Details: mouse, in vivo, male ddy mice, 1% tragacanth suspension, 7 days
Protocol: With 4 to 5 ddy-strain male mice of 6 weeks old as one group, the compound of the present invention was orally administered as a suspension in 1% tragacanth solution, and observation was conducted for 7 days and the number of dead mice was examined to obtain the results shown in Table 5.

SMILES	LD50 at 168 h [mg/kg]
O=C([O-])CCCNc1cccc(/C=C/c2nc3ccccc3s2)c1.[Na+]	2000 to 3000
O=C(O)[C@H]1CCCC[C@H]1C(=O)Nc1cccc(/C=C/c2nc3cc(Cl)ccc3s2)c1 (relative stereo) [compound 26]	> 3000
O=C(O)[C@H]1CCCC[C@H]1C(=O)Nc1cccc(/C=C/c2nc3ccccc3s2)c1 (relative stereo) [compound 216]	> 3000
Cc1ccc2sc(/C=C/c3cccc(NC(=O)[C@@H]4CCCC[C@@H]4C(=O)O)c3)nc2c1 (relative stereo) [compound 232]	3000
O=C(O)[C@H]1CCCC[C@H]1C(=O)Nc1cccc(/C=C/c2nc(-c3ccccc3)cs2)c1 (relative stereo) [compound 248]	> 3000
O=C(O)[C@H]1CC=CC[C@H]1C(=O)Nc1cccc(/C=C/c2nc(-c3ccccc3)cs2)c1 (relative stereo) [compound 249]	1000 to 2000
Cc1nc(/C=C/c2cccc(NC(=O)[C@H]3CCCC[C@H]3C(=O)O)c2)sc1C (relative stereo) [compound 315]	1000 to 2000
Cc1nc(/C=C/c2cccc(NC(=O)[C@H]3CC=CC[C@H]3C(=O)O)c2)sc1C (relative stereo) [compound 317]	1030
CCc1nc(/C=C/c2cccc(NC(=O)[C@H]3CCCC[C@H]3C(=O)O)c2)sc1C (relative stereo) [compound 324]	1380
O=C(Nc1cccc(CCc2nc3ccccc3s2)c1)[C@H]1CCCC[C@H]1C(=O)O (relative stereo) [compound 355]	1930
O=C(O)[C@@H]1CCCC[C@H]1C(=O)Nc1cccc(/C=C/c2nc3ccccc3s2)c1 (relative stereo) [compound 418]	< 3000
O=C(O)c1ccccc1C(=O)Nc1cccc(/C=C/c2nc3ccccc3s2)c1 [compound 2]	> 3000
O=C(O)/C=C\C(=O)Nc1cccc(/C=C/c2nc3ccccc3s2)c1 [compound 213, 2-[trans-3-(cis-3-carboxypropenamide)styryl]benzothiazole sodium salt]	> 3000
O=C(O)c1ccccc1C(=O)Nc1cccc(/C=C/c2nc(-c3ccccc3)cs2)c1 [compound 247]	> 3000
CCCCCc1csc(/C=C/c2cccc(NC(=O)c3ccccc3C(=O)O)c2)n1 [compound 281]	> 3000
CC(C)c1csc(/C=C/c2cccc(NC(=O)c3ccccc3C(=O)O)c2)n1 [compound 300]	1000 to 2000
CC(C)c1csc(/C=C/c2cccc(NC(=O)CCCC(=O)O)c2)n1 [compound 303]	2000
Cc1nc(/C=C/c2cccc(NC(=O)/C=C\C(=O)O)c2)sc1C [compound 313]	1560
Cc1nc(/C=C/c2cccc(NC(=O)c3ccccc3C(=O)O)c2)sc1C [compound 314]	2000 to 3000
CCc1nc(/C=C/c2cccc(NC(=O)CCC(=O)O)c2)sc1C [compound 325]	2000
CCc1nc(/C=C/c2cccc(NC(=O)CCCC(=O)O)c2)sc1C [compound 326]	< 3000
O=C(O)/C=C\C(=O)Nc1cccc(CCc2nc3ccccc3s2)c1 [compound 353]	3310
CCc1nc(C=Cc2cccc(NCCCC(=O)O)c2)sc1C [compound 382]	1930

System: SRS
Assay: SRS antagonistic action in vitro (isolated guinea pig ileum shrinkage)
Details: conc. attenuating control shrinkage to 50% (IC50), Tables 2-1 to 2-4, head prints no unit, read-out: Anti-SRS action [minimum effective conc.]
Protocol: The ileum end portion of a male Hartley-strain guinea pig weighing 200-450 g was extirpated and after washing its lumen, the ileum was mounted within 5 ml of a tissue bath containing a Tylord solution comprising the following components. […] For removing shrinkage with hystamine and acetylcholine, 10^-7 g/ml of mepylamin and 5×10^-8 g/ml of atropin were added to the above buffer. […] The ileum was loaded passively with 0.5 g of tension and the ileum shrinkage reaction to SRS extracted from guinea pig lung was obtained. The persistent shrinkage height by one unit of SRS (corresponding to 5 ng of hystamine) was used as control.

SMILES	IC50 [M]
O=C(O)[C@H]1CCCC[C@H]1C(=O)Nc1cccc(/C=C/c2nc3ccccc3s2)c1 (relative stereo) [compound 3]	5e-08
O=C(O)c1ccccc1C(=O)Nc1cccc(/C=C/c2nc3ccccc3s2)c1 [compound 2]	5e-09
O=C(O)/C=C\C(=O)Nc1cccc(/C=C/c2nc(-c3ccccc3)cs2)c1 [compound 34]	2e-08
Cc1csc(/C=C/c2cccc(NC(=O)/C=C\C(=O)O)c2)n1 [compound 54]	5e-07
O=C(O)/C=C/C(=O)Nc1cccc(/C=C/c2nc3ccccc3s2)c1 [compound 167]	2e-07
O=C(O)C(=O)Nc1cccc(/C=C/c2nc3ccccc3s2)c1 [compound 168]	1e-07
COC(=O)CCC(=O)Nc1cccc(/C=C/c2nc3ccccc3s2)c1 [compound 192]	5e-07
CCCCC(CC(=O)Nc1cccc(/C=C/c2nc3ccccc3s2)c1)C(=O)O (stereo not shown) [compound 227]	5e-08
Cc1ccc2sc(/C=C/c3cccc(NC(=O)c4ccccc4C(=O)O)c3)nc2c1 [compound 231]	5e-09
Cc1cc(C(=O)O)c(C(=O)Nc2cccc(/C=C/c3nc(-c4ccccc4)cs3)c2)cc1C [compound 253]	5e-08
CCCCCCc1csc(/C=C/c2cccc(NC(=O)c3ccccc3C(=O)O)c2)n1 [compound 287]	2e-05
CCCCCCCc1csc(/C=C/c2cccc(NC(=O)c3ccccc3C(=O)O)c2)n1 [compound 291]	1e-07
CC(C)(C)c1csc(/C=C/c2cccc(NC(=O)CCCC(=O)O)c2)n1 [compound 298]	5e-05
CC(C)c1csc(/C=C/c2cccc(NC(=O)CC(C(=O)O)c3ccccc3)c2)n1 (stereo not shown) [compound 307]	2e-09
CCc1nc(/C=C/c2cccc(NC(=O)c3cc(C)c(C)cc3C(=O)O)c2)sc1C [compound 328]	5e-09
CCCc1nc(/C=C/c2cccc(NC(=O)/C=C\C(=O)O)c2)sc1CC [compound 332]	1e-07

Same assay, conditions: conc. attenuating control shrinkage to 50% (IC50), Tables 2-6 to 2-11 and Table 3, read-out: Anti-SRS action [minimum effective conc. (M)]

SMILES	IC50 [M]
O=C(O)[C@H]1CCCC[C@H]1C(=O)Nc1cccc(/C=C/c2nc3ccccc3s2)c1 (relative stereo) [compound 414, 2-[trans-3-(cis-2-carboxycyclohexanoyl)aminostyryl]benzothiazole N-methyl-D-glucamine salt]	1e-06
O=C(O)/C=C\C(=O)Nc1cccc(NCc2nc3ccccc3s2)c1 [compound 150]	2e-07
CC(C)CCOC(=O)/C=C\C(=O)Nc1cccc(/C=C/c2nc3ccccc3s2)c1 [compound 189, 2-[trans-3-(cis-3-isoamyloxycarbonylpropenamide)styryl]benzothiazole]	1e-06
CCOC(=O)CCCNc1cccc(/C=C/c2nc3ccccc3s2)c1 [compound 199, 2-[trans-3-(3-ethoxycarbonylpropyl)aminostyryl]benzothiazole]	2e-07
O=C(O)/C=C\C(=O)Nc1cccc(/C=C/c2nc3ccccc3s2)c1 [compound 213, 2-[trans-3-(cis-3-carboxypropenamide)styryl]benzothiazole sodium salt]	5e-08
O=C(CC1(C(=O)O)CCCCC1)Nc1cccc(CCc2nc3ccccc3s2)c1 [compound 358]	1e-08
O=C(O)/C=C\C(=O)Nc1cccc(OCc2nc3ccccc3s2)c1 [compound 368]	1e-07
O=C(O)/C=C\C(=O)Nc1cccc(COCc2nc3ccccc3s2)c1 [compound 369]	1e-05
O=C(O)CCCNc1cccc(CCc2nc3ccccc3s2)c1 [compound 376]	5e-07
Cc1nc(C=Cc2cccc(NCCCC(=O)O)c2)sc1C [compound 377]	2e-07
CCc1csc(C=Cc2cccc(NCCCC(=O)O)c2)n1 [compound 387]	1e-08
CCCCc1csc(C=Cc2cccc(NCCCC(=O)O)c2)n1 [compound 389]	1e-07
O=C(O)CCCCNc1cccc(/C=C/c2nc3ccccc3s2)c1 [compound 398]	2e-07
O=C(O)CCCCCc1cccc(/C=C/c2nc3ccccc3s2)c1 [compound 411]	1e-05
O=C(CCCO)Nc1cccc(/C=C/c2nc3ccccc3s2)c1 [compound 422, 2-[trans-3-(4-hydroxybutanoylamino)styryl]benzothiazole]	1e-06
OCCCCOc1cccc(/C=C/c2nc3ccccc3s2)c1 [compound 423, 2-[trans-3-(4-hydroxybutoxy)styryl]benzothiazole]	1e-05
C(=C\c1nc2ccccc2s1)/c1cccc(NCCCc2nnn[nH]2)c1 [compound 424, 2-[trans-3-(3-(5-tetrazolyl)propylamino)styryl]benzothiazole]	5e-07
O=C(O)CCNc1cccc(/C=C/c2nc3ccccc3s2)c1 [compound 426, 2-[trans-3-(2-carboxyethylamino)styryl]benzothiazole sodium salt]	2e-07
